Results as given in US20160047819A1, “METHOD FOR DIAGNOSING VAGINAL INFECTIONS” (priority 2013, published 2016).

Test system: vaginal proteome (human proteins in vaginal fluid)
Assay: MS/MS proteomic analysis of vaginal fluid pools, BV-affected women before (BV) and after rifaximin/placebo treatment: human proteins
Assay type: in vivo
Procedure: Proteomic analysis was performed on 9 pools of vaginal isolates, grouped according to the status of the BV infection: • H pool (from 41 healthy women); BV pool (from 39 BV-affected women); • A-R pool (from 2 women who were in remission after rifaximin treatment-group A); • A-N pool (from 8 women who were not in remission after rifaximin treatment-group A); • B-R pool (from 5 women who were in remission after rifaximin treatment-group B); • B-N pool (from 5 women who were not in remission after rifaximin treatment-group B); • C-R pool (from 4 women who were in remission after rifaximin treatment-group C); • C-N (from 5 women who were not in remission after rifaximin treatment-group C); • D-N (from 10 women who were not in remission after placebo treatment-group D). Scheme of the vaginal fluids collected for testing the diagnostic method is represented in FIG. 1.
In these figures are reported the peptides in the fractionated pools of healthy women, women affected by BV and peptides of women treated with rifaximin. The treatment with rifaximin was at dosage of 100 mg/day for 5 days; (remission, A-R; no remission, A-N), 25 mg/5 days (remission, B-R; no remission, B-N), 100 mg/2 days (remission, C-R; no remission, C-N), and placebo for 5 days (D-N). Two types of comparisons were carried out: (i) between fractionated pools of proteins from vaginal fluid of healthy women (HF) versus fractionated pool of proteins from vaginal fluid of women affected by bacterial vaginosis (BVF); (ii) between whole pools of proteins from vaginal fluid of women affected by BV treated by administering different doses of rifaximin or placebo before (BV) and after (A-R, A-N, B-R, B-N, C-R, C-N, D-N) treatment. Fractioned pools of proteins are obtained, e.g., by separating the proteins by separation on membrane filtration with different membrane porosity, prior to MS/MS analysis.
Nine volumes of acetone: HCl (10:1) were added to the supernatant of the vaginal rinsing and proteins were precipitated by centrifuging at 12000 g for 10 min. The protein pellet was dissolved in 1 mL of 70% ethanol and the sample was spun at 12000 g for 10 min. One mL of acetone was added and the proteins were further precipitated by centrifugation at 12000 g for 5 min. After removing supernatant, pellet was dried by SpeedVac concentrator (Thermo Savant ISS110, Thermo Fisher Scientific, Waltham, Mass.) and then stored at −20° C.
Protein extract was quantified using the 2-D Quant Kit (GE Healthcare, Uppsala, Sweden) according to the manufacturer's instructions.
Patients who were diagnosed for BV at the study visit V1 were included in a multicentre, double-blind, randomised, placebo-controlled study (EudraCT: 2009-011826-32), that was performed to compare the efficacy of different doses of rifaximin vaginal tablets versus placebo for the treatment of BV. The patients underwent a randomisation visit and were distributed into 4 treatment groups: group A received 100 mg rifaximin vaginal tablet once daily for 5 days (n=10), group B received 25 mg rifaximin vaginal tablet once daily for 5 days (n=10), group C received 100 mg rifaximin vaginal tablet once daily for the first 2 days and placebo vaginal tablet for the remaining 3 days (n=9), group D received placebo vaginal tablet once daily for 5 days (n=10). Study medication was administered intra-vaginally at bedtime. After 7 to 10 days from the end of the therapy a follow-up visit (V3) was performed. Remission was evaluated at V3 according to Amsel's criteria (<3) and Gram stain Nugent score (≦3) (Table 1).
Standardized vaginal rinsings with 2 mL of saline were collected for analysis at V1 and V3 by flushing and re-aspirating the fluid through a 22 Gauge needle in the left, central and right upper vaginal vaults. The vaginal rinsings were subsequently stored at −80° C. until use.
MS/MS analysis was carried out for H and BV pools and for the whole BV, A-R, A-N, B-R, B-N, C-R, C-N and D-N pools containing 50 μg of protein each. […]

## CO[C@H]1/C=C/O[C@@]2(C)Oc3c(C)c(O)c4c(O)c(c5c(nc6cc(C)ccn65)c4c3C2=O)NC(=O)/C(C)=C\C=C\[C@H](C)[C@H](O)[C@@H](C)[C@@H](O)[C@@H](C)[C@H](OC(C)=O)[C@@H]1C [rifaximin]
Pool A-R after treatment
  Ratio X/H Zyxin (Q15942): −3.2
Pool B-N after treatment
  Ratio X/H Sciellin (O95171): 0.0
  Ratio X/H Semenogelin-2 (Q02383): −2.3
  Ratio X/H Serine protease 27 (Q9BQR3): 0.0
  Ratio X/H Serine/threonine-protein kinase ULK1 (O75385): 0.0
  Ratio X/H Serotransferrin (P02787): 0.0
  Ratio X/H Serpin B3 (P29508): 1.8
  Ratio X/H Serpin B4 (P48594): 1.5
  Ratio X/H Serpin B5 (P36952): 0.0
  Ratio X/H Serpin B6 (P35237): 0.0
  Ratio X/H Serpin B9 (P50453): 0.0
  Ratio X/H Serpin B12 (Q96P63): −1.8
  Ratio X/H Serpin B13 (Q9UIV8): 1.5
  Ratio X/H Serum albumin (P02768): 0.0
  Ratio X/H Serum paraoxonase/arylesterase 1 (P27169): 1.7
  Ratio X/H Small proline-rich protein 3 (Q9UBC9): 0.0
  Ratio X/H Stanniocalcin-1 (P52823): 1.7
  Ratio X/H Sulfhydryl oxidase 1 (O00391): 0.0
  Ratio X/H Superoxide dismutase [Cu—Zn] (P00441): 0.0
  Ratio X/H Suprabasin (Q6UWP8): 7.6
  Ratio X/H Syntenin-1 (O00560): 2.6
  Ratio X/H Talin-1 (Q9Y490): 0.0
  Ratio X/H Tctex1 domain-containing protein 2 (Q8WW35): −25.1
  Ratio X/H Teneurin-3 (Q9P273): 12.3
  Ratio X/H Thioredoxin (P10599): 1.5
  Ratio X/H Transaldolase (P37837): 1.6
  Ratio X/H Transmembrane protease serine 11D (O60235): −1.6
  Ratio X/H Transthyretin (P02766): 0.0
  Ratio X/H Tumor protein D54 (O43399): 0.0
  Ratio X/H UTP--glucose-1-phosphate uridylyltransferase (Q16851): 0.0
  Ratio X/H UV excision repair protein RAD23 homolog B (P54727): −1.6
  Ratio X/H Versican core protein (P13611): −1.7
  Ratio X/H Vinculin (P18206): 1.5
  Ratio X/H Vitamin D-binding protein (P02774): −2.0
  Ratio X/H Werner syndrome ATP-dependent helicase (Q14191): 131.2
  Ratio X/H Zinc finger protein 185 (O15231): 0.0
  Ratio X/H Zinc finger protein 335 (Q9H4Z2): 0.0
  Ratio X/H Zinc-alpha-2-glycoprotein (P25311): 0.0
  Ratio X/H Zyxin (Q15942): 0.0
Pool B-R after treatment
  Ratio X/H Sciellin (O95171): 0.0
  Ratio X/H Semenogelin-2 (Q02383): 5.9
  Ratio X/H Serine protease 27 (Q9BQR3): −2.3
  Ratio X/H Serine/threonine-protein kinase ULK1 (O75385): −4.4
  Ratio X/H Serotransferrin (P02787): −3.9
  Ratio X/H Serpin B3 (P29508): 4.3
  Ratio X/H Serpin B4 (P48594): 0.0
  Ratio X/H Serpin B5 (P36952): −4.7
  Ratio X/H Serpin B6 (P35237): 0.0
  Ratio X/H Serpin B9 (P50453): −5.6
  Ratio X/H Serpin B12 (Q96P63): −1.9
  Ratio X/H Serpin B13 (Q9UIV8): 0.0
  Ratio X/H Serum albumin (P02768): −13.2
  Ratio X/H Serum paraoxonase/arylesterase 1 (P27169): 0.0
  Ratio X/H Small proline-rich protein 3 (Q9UBC9): 6.6
  Ratio X/H Stanniocalcin-1 (P52823): 113.1
  Ratio X/H Sulfhydryl oxidase 1 (O00391): 1.6
  Ratio X/H Superoxide dismutase [Cu—Zn] (P00441): −1.5
  Ratio X/H Suprabasin (Q6UWP8): 15.1
  Ratio X/H Syntenin-1 (O00560): −3.1
  Ratio X/H Talin-1 (Q9Y490): −1.6
  Ratio X/H Tctex1 domain-containing protein 2 (Q8WW35): 4.2
  Ratio X/H Teneurin-3 (Q9P273): −2.3
  Ratio X/H Thioredoxin (P10599): 3.1
  Ratio X/H Transaldolase (P37837): −1.7
  Ratio X/H Transmembrane protease serine 11D (O60235): 2.6
  Ratio X/H Transthyretin (P02766): −4.7
  Ratio X/H Tumor protein D54 (O43399): 2.2
  Ratio X/H UTP--glucose-1-phosphate uridylyltransferase (Q16851): 0.0
  Ratio X/H UV excision repair protein RAD23 homolog B (P54727): −2.2
  Ratio X/H Uronyl 2-sulfotransferase (Q9Y2C2): 2.1
  Ratio X/H Versican core protein (P13611): 2.6
  Ratio X/H Vinculin (P18206): 0.0
  Ratio X/H Vitamin D-binding protein (P02774): −17.8
  Ratio X/H Werner syndrome ATP-dependent helicase (Q14191): 750.5
  Ratio X/H Zinc finger protein 185 (O15231): 5.8
  Ratio X/H Zinc finger protein 335 (Q9H4Z2): −1.6
  Ratio X/H Zinc-alpha-2-glycoprotein (P25311): −9.4
  Ratio X/H Zyxin (Q15942): −5.1
